What was measured:
[1] = target: HIV-1 reverse transcriptase (Human immunodeficiency virus type 1 group M subtype B, UniProt P04585); experiment: Inhibition of HIV reverse transcriptase (statement in background); assay type: biochemical; conditions: metabolite of NNRTI from rat, monkey and human microsomes

SMILES	melting point [°C]	inhibitor of HIV reverse transcriptase [1]
CC(=O)c1ccc2c(c1)C(C#CC1CC1)(C(F)(F)F)OC(=O)N2 (racemic) [Example 7, (+/−)-6-Acetyl-4-cyclopropylethynyl-4-trifluoromethyl-1,4-dihydro-2H-3,1-benzoxazin-2-one]	197 to 200	–
O=C1Nc2c(O)cc(Cl)cc2[C@@](C#CC2CC2)(C(F)(F)F)O1 [Example 2, (−)-6-Chloro-4-(cyclopropylethynyl)-8-hydroxy-4-(trifluoromethyl)-1,4-dihydro-2H-3,1-benzoxazin-2-one]	–	potent inhibitor
O=C1Nc2ccc(Cl)cc2[C@@](C#Cc2ccccn2)(C(F)(F)F)O1 [Example 23]	185.8	–
O=C1Nc2c(F)cc(Cl)cc2C(C#CC2CC2)(C(F)(F)F)O1 (racemic) [Example 4, (+/−)-6-Chloro-4-(cyclopropylethynyl)-8-fluoro-4-(trifluoromethyl)-1,4-dihydro-2H-3,1-benzoxazin-2-one]	169 to 171	–
Cc1ccc2c(c1)C(C#CC1CC1)(C(C)C)OC(=O)N2 (racemic) [Example 5, (+/−)-4-Cyclopropylethynyl-4-isopropyl-6-methyl-1,4-dihydro-2H-3,1-benzoxazin-2-one]	138 to 138.5	–
